Where two headings read alike, the source gives them in different places.
Legend:
Type in all cases: in vivo
[1] = test system: kochia (Kochia scoparia L; KCHSC); experiment: Postemergence herbicidal activity of mixtures on kochia; parameters: pest or weed control: dose or concentration left out as unconfirmed; conditions: for KCHSC Ob (observed control): alone; for pest or weed control at 31.25 g/ha: fungicide 31.25 g/ha alone
Procedure: (§1) Seeds of the desired test plant species were planted in Sun Gro MetroMix 306 planting mixture, which typically has a pH of 6.0 to 6.8 and an organic matter content of about 30 percent, in plastic pots with a surface area of 103.2 square centimeters (cm^2). When required to ensure good germination and healthy plants, a fungicide treatment and/or other chemical or physical treatment was applied. The plants were grown for 7-36 days (d) in a greenhouse with an approximate 14-hour (h) photoperiod which was maintained at about 18° C. during the day and 17° C. during the night. Nutrients and water were added on a regular basis and supplemental lighting was provided with overhead metal halide 1000-Watt lamps as necessary. The plants were employed for testing when they reached the second or third true leaf stage.
(§2) Treatments consisted of a cereal fungicide compound (as listed in Tables 1 through 34) and the cereal herbicide, 4-amino-3-chloro-6-(4-chloro-2-fluoro-3-methoxyphenyl)pyridine-2-carboxylic acid, alone and in combination. Weighed amounts of acid, esters (methyl) or salts (triethylammonium, TEA) of 4-amino-3-chloro-6-(4-chloro-2-fluoro-3-methoxyphenyl)pyridine-2-carboxylic acid (Compound I) were placed in 25 milliliter (mL) glass vials and dissolved in a volume of 97:3 volume-to-volume (v/v) acetone/dimethyl sulfoxide (DMSO) to obtain 4.5 milligrams active ingredient per milliliter (mg ai/mL) concentrated solutions. […] The concentrated solutions of Compound I were diluted to 1.5 mg ai/mL with the addition of 2 volumes of an aqueous mixture containing acetone, water, isopropyl alcohol, DMSO, Agri-dex crop oil concentrate, and Triton® X-77 surfactant in a 64.7:26.0:6.7:2.0:0.7:0.01 v/v ratio. A dilution solution was prepared by mixing 1 volume of 97:3 v/v acetone/DMSO and 2 volumes of an aqueous mixture containing acetone, water, isopropyl alcohol, DMSO, Agri-dex crop oil concentrate, and Triton® X-77 surfactant in a 64.7:26.0:6.7:2.0:0.7:0.01 v/v ratio. Compound requirements are based upon a 12 mL application volume at a rate of 187 liters per hectare (L/ha). The concentrated solutions of the cereal fungicides were prepared following the same procedure. Weighed amounts of fungicide were placed in 25 mL glass vials and dissolved in a volume of 97:3 v/v acetone/DMSO to obtain concentrated fungicide solutions. The concentrated solutions of the safener were prepared following the same procedure. Weighed amounts of safener were placed in 25 mL glass vials and dissolved in a volume of 97:3 v/v acetone/DMSO to obtain concentrated safener solutions.
(§3) Spray solutions of the cereal herbicide and the fungicidal compound mixtures were prepared by adding the concentrated solutions to the appropriate amount of dilution solution to form 12 mL spray solution with active ingredients in combinations. Spray solutions of the cereal herbicide, herbicide safener and the fungicidal compound mixtures were prepared by adding the concentrated solutions to the appropriate amount of dilution solution to form 12 mL spray solution with active ingredients in combinations.
(§4) Formulated compounds were applied to the plant material with an overhead Mandel track sprayer equipped with 8002E nozzles calibrated to deliver 187 L/ha over an application area of 0.503 square meters (m^2) at a spray height of 18 inches […] above average plant canopy. Control plants were sprayed in the same manner with the solvent blank.
(§5) The treated plants and control plants were placed in a greenhouse as described above and watered by sub-irrigation to prevent wash-off of the test compounds. After 20-22 d, the condition of the test plants as compared with that of the control plants was determined visually and scored on a scale of 0 to 100 percent where 0 corresponds to no injury and 100 corresponds to complete kill. […]

[2] = test system: Russian thistle (Salsola iberica L; SASKR); experiment: Postemergence herbicidal activity of mixtures on Russian thistle; conditions: for SASKR Ob (observed control): alone; for pest or weed control at 31.25 g/ha: fungicide 31.25 g/ha alone
Procedure: as §1, §2, §3, §4, §5

[3] = test system: bird's-eye speedwell (Veronica persica L; VERPE); experiment: Postemergence herbicidal activity of mixtures on bird's-eye speedwell; conditions: for VERPE Ob (observed control): alone; for pest or weed control at 31.25 g/ha: fungicide 31.25 g/ha alone
Procedure: as §1, §2, §3, §4, §5

[4] = test system: scented mayweed (Matricaria chamomila L; MATCH); experiment: Postemergence herbicidal activity of mixtures on scented mayweed; parameters: pest or weed control: dose or concentration left out as unconfirmed; conditions: for MATCH Ob (observed control): alone; for pest or weed control at 31.25 g/ha: fungicide 31.25 g/ha alone
Procedure: as §1, §2, §3, §4, §5

[5] = test system: wild pansy (Viola tricolor L; VIOTR); experiment: Postemergence herbicidal activity of mixtures on wild pansy; conditions: Viola tricolor, post-emergence; for pest or weed control at 31.25 g/ha: fungicide 31.25 g/ha alone
Procedure: as §1, §2, §3, §4, §5

[6] = Bassia scoparia, post-emergence, read-out: KCHSC Ob
[7] = Salsola tragus, post-emergence, read-out: SASKR Ob
[8] = Veronica persica, post-emergence, read-out: VERPE Ob
[9] = Matricaria, post-emergence, read-out: MATCH Ob
[10] = fungicide 37.5 g/ha alone, read-out: VIOTR Ob

OC(Cc1ccccc1Cl)(Cn1[nH]cnc1=S)C1(Cl)CC1 (stereo not drawn) [Prothioconazole, 2-[2-(1-chlorocyclopropyl)-3-(2-chlorophenyl)-2-hydroxypropyl]-1,2-dihydro-3H-1,2,4-triazole-3-thione]
0%: pest or weed control at 50 g/ha ([1]; Bassia scoparia, post-emergence, fungicide 50 g/ha alone, read-out: KCHSC Ob) | pest or weed control at 50 g/ha ([2]; Salsola tragus, post-emergence, fungicide 50 g/ha alone, read-out: SASKR Ob) | pest or weed control at 50 g/ha ([3]; Veronica persica, post-emergence, fungicide 50 g/ha alone, read-out: VERPE Ob) | pest or weed control at 50 g/ha ([4]; Matricaria, post-emergence, fungicide 50 g/ha alone, read-out: MATCH Ob)

CO/N=C(/C(=O)OC)c1ccccc1CO/N=C(\C)c1cccc(C(F)(F)F)c1 [Trifloxystrobin, methyl (αE)-α-(methoxyimino)-2-[[[[(1E)-1-[3-(trifluoromethyl)phenyl]ethylidene]amino]oxy]methyl]benzeneacetate]
0%: pest or weed control at 62.5 g/ha ([5]; alone, 62.5 g/ha, read-out: VIOTR Ob (observed control)) | KCHSC Ob (observed control) ([1]; 62.5 g/ha) | SASKR Ob (observed control) ([2]; 62.5 g/ha) | VERPE Ob (observed control) ([3]; 62.5 g/ha) | MATCH Ob (observed control) ([4]; 62.5 g/ha)

OC(Cn1cncn1)(c1ccc(F)cc1)c1ccccc1F (stereo not drawn) [Flutriafol, α-(2-fluorophenyl)-α-(4-fluorophenyl)-1H-1,2,4-triazole-1-ethanol]
0%: pest or weed control at 21.25 g/ha ([5]; fungicide 21.25 g/ha alone, read-out: VIOTR Ob) | pest or weed control at 21.25 g/ha ([1]; Bassia scoparia, post-emergence, fungicide 21.25 g/ha alone, read-out: KCHSC Ob) | pest or weed control at 21.25 g/ha ([2]; Salsola tragus, post-emergence, fungicide 21.25 g/ha alone, read-out: SASKR Ob) | pest or weed control at 21.25 g/ha ([4]; Matricaria, post-emergence, fungicide 21.25 g/ha alone, read-out: MATCH Ob)

CCCN(CC)CC1COC2(CCC(C(C)(C)C)CC2)O1 (stereo not drawn) [Spiroxamine, 8-(1,1-dimethylethyl)-N-ethyl-N-propyl-1,4-dioxaspiro[4.5]decane-2-methanamine]
0%: pest or weed control at 180 g/ha ([5]; alone, 180 g/ha, read-out: VIOTR Ob (observed control)) | KCHSC Ob (observed control) ([1]; 180 g/ha) | MATCH Ob (observed control) ([4]; 180 g/ha)

CCCN(CCOc1c(Cl)cc(Cl)cc1Cl)C(=O)n1ccnc1 [Prochloraz, N-propyl-N-[2-(2,4,6-trichlorophenoxy)ethyl]-1H-imidazole-1-carboxamide]
0%: pest or weed control at 101.25 g/ha ([5]; read-out: VIOTR Ob) | pest or weed control at 101.25 g/ha [1, 6] | pest or weed control at 101.25 g/ha [2, 7] | pest or weed control at 101.25 g/ha [3, 8] | pest or weed control at 101.25 g/ha [4, 9]

CC1(C)CCC(Cc2ccc(Cl)cc2)C1(O)Cn1cncn1 (stereo not drawn) [Metconazole, 5-[(4-chlorophenyl)methyl]-2,2-dimethyl-1-(1H-1,2,4-triazol-1-ylmethyl)cyclopentanol]
0%: pest or weed control [1, 6] | pest or weed control [4, 9]

Fc1ccc(Oc2ccnc3cc(Cl)cc(Cl)c23)cc1 [Quinoxyfen, 5,7-dichloro-4-(4-fluorophenoxy)quinoline]
0%: pest or weed control at 37.5 g/ha ([5]; alone, 37.5 g/ha, read-out: VIOTR Ob (observed control)) | pest or weed control at 37.5 g/ha [5, 10] | pest or weed control at 37.5 g/ha ([1]; Bassia scoparia, post-emergence, fungicide 37.5 g/ha alone, read-out: KCHSC Ob) | KCHSC Ob (observed control) ([1]; 37.5 g/ha) | SASKR Ob (observed control) ([2]; 37.5 g/ha) | VERPE Ob (observed control) ([3]; 37.5 g/ha) | MATCH Ob (observed control) ([4]; 37.5 g/ha)

COC(=O)Nc1nc2ccccc2[nH]1 [Carbendazim, methyl 1H-benzimidazol-2-ylcarbamate]
0%: pest or weed control at 62.5 g/ha ([5]; fungicide 62.5 g/ha alone, read-out: VIOTR Ob) | pest or weed control at 62.5 g/ha ([1]; Bassia scoparia, post-emergence, fungicide 62.5 g/ha alone, read-out: KCHSC Ob)

Fc1ccc([C@]2(Cn3cncn3)O[C@H]2c2ccccc2Cl)cc1 (racemic) [Epoxiconazole, rel-1-[[(2R,3S)-3-(2-chlorophenyl)-2-(4-fluorophenyl)oxiranyl]methyl]-1H-1,2,4-triazole]
0%: pest or weed control at 31.25 g/ha ([5]; read-out: VIOTR Ob) | pest or weed control at 31.25 g/ha [1, 6] | pest or weed control at 31.25 g/ha [2, 7] | pest or weed control at 31.25 g/ha [3, 8] | pest or weed control at 31.25 g/ha [4, 9]

CCCOc1nc2ccc(I)cc2c(=O)n1CCC [Proquinazid, 6-iodo-2-propoxy-3-propyl-4(3H)-quinazolinone]
0%: pest or weed control at 12.5 g/ha ([5]; fungicide 12.5 g/ha alone, read-out: VIOTR Ob) | pest or weed control at 12.5 g/ha ([4]; Matricaria, post-emergence, fungicide 12.5 g/ha alone, read-out: MATCH Ob)

CCCCCC(C)OC(=O)COc1ccc(Cl)c2cccnc12 (stereo not drawn) [cloquintocet-mexyl]
0%: pest or weed control at 4.4 g/ha ([5]; alone, 4.4 g/ha, read-out: VIOTR Ob (observed control)) | pest or weed control at 35 g/ha ([5]; alone, 35 g/ha, read-out: VIOTR Ob (observed control)) | KCHSC Ob (observed control) ([1]; 4.4 g/ha) | KCHSC Ob (observed control) ([1]; 35 g/ha) | SASKR Ob (observed control) ([2]; 4.4 g/ha) | SASKR Ob (observed control) ([2]; 35 g/ha) | VERPE Ob (observed control) ([3]; 4.4 g/ha) | VERPE Ob (observed control) ([3]; 35 g/ha) | MATCH Ob (observed control) ([4]; 4.4 g/ha) | MATCH Ob (observed control) ([4]; 35 g/ha)

CCCC1COC(Cn2cncn2)(c2ccc(Cl)cc2Cl)O1 (stereo not drawn) [Propiconazole, 1-[[2-(2,4-dichlorophenyl)-4-propyl-1,3-dioxolan-2-yl]methyl]-1H-1,2,4-triazole]
0%: pest or weed control at 31.25 g/ha ([5]; read-out: VIOTR Ob) | pest or weed control at 31.25 g/ha [1, 6] | pest or weed control at 31.25 g/ha [2, 7] | pest or weed control at 31.25 g/ha [3, 8] | pest or weed control at 31.25 g/ha [4, 9]

CO/N=C(/C(=O)OC)c1ccccc1COc1ccccc1C [Kresoxim-methyl, methyl (αE)-α-(methoxyimino)-2-[(2-methylphenoxy)methyl]benzeneacetate]
0%: pest or weed control at 25 g/ha ([4]; Matricaria, post-emergence, fungicide 25 g/ha alone, read-out: MATCH Ob)

COc1ccnc(C(=O)N[C@H]2COC(=O)[C@H](Cc3ccccc3)[C@@H](OC(=O)C(C)C)[C@H](C)OC2=O)c1OCOC(=O)C(C)C [compound II, isobutyric acid (3S,6S,7R,8R)-8-benzyl-3-[(3-isobutyryloxymethoxy-4-methoxypyridine-2-carbonyl)-amino]-6-methyl-4,9-dioxo-[1,5]dioxonan-7-yl ester]
0%: pest or weed control at 40.5 g/ha ([5]; read-out: VIOTR Ob (observed control)) | KCHSC Ob (observed control) ([1]; 40.5 g/ha) | SASKR Ob (observed control) ([2]; 40.5 g/ha) | MATCH Ob (observed control) ([4]; 40.5 g/ha)

COc1cc(C)c(C(=O)c2c(OC)ccc(Br)c2C)c(OC)c1OC [Metrafenone, (3-bromo-6-methoxy-2-methylphenyl)(2,3,4-trimethoxy-6-methylphenyl)methanone]
0%: pest or weed control at 37.5 g/ha [5, 10] | pest or weed control at 37.5 g/ha ([2]; Salsola tragus, post-emergence, fungicide 37.5 g/ha alone, read-out: SASKR Ob) | pest or weed control at 37.5 g/ha ([4]; Matricaria, post-emergence, fungicide 37.5 g/ha alone, read-out: MATCH Ob)

Cc1cc(C2CC2)nc(Nc2ccccc2)n1 [Cyprodinil, 4-cyclopropyl-6-methyl-N-phenyl-2-pyrimidinamine]
0%: pest or weed control at 187.5 g/ha ([2]; Salsola tragus, post-emergence, fungicide 187.5 g/ha alone, read-out: SASKR Ob)
